Experiments:
[1] = test system: Ctenocephalides felis; assay: Ctenocephalides felis oral test; type: in vivo; conditions: application rate 100 ppm in citrated cattle blood, after 2 days
Text: Ctenocephalides felis—Oral Test • Solvent: dimethyl sulphoxide […] Dilution with citrated cattle blood gives the desired concentration. About 20 unfed adult cat fleas (Ctenocephalides felis) are placed into a chamber which is closed at the top and bottom with gauze. A metal cylinder whose bottom end is closed with parafilm is placed onto the chamber. The cylinder contains the blood/active compound preparation, which can be imbibed by the fleas through the parafilm membrane.

[2] = test system: Lucilia cuprina; assay: Lucilia cuprina test; type: in vivo; conditions: application rate 100 ppm, L1 larvae, after 2 days
Procedure: (§1) • Solvent: dimethyl sulphoxide
(§2) To produce a suitable preparation of active compound, 10 mg of active compound are mixed with 0.5 ml of dimethyl sulphoxide, and the concentrate is diluted with water to the desired concentration.
About 20 L1 larvae of the Australian sheep blowfly (Lucilia cuprina) are transferred into a test vessel containing minced horsemeat and the active compound preparation of the desired concentration.
After 2 days, the kill in % is determined. 100% means that all the larvae have been killed; 0% means that no larvae have been killed.

[3] = test system: Boophilus microplus; assay: Boophilus microplus injection test; type: in vivo; conditions: application rate 20 μg/animal, assessed after 7 days
Procedure: Boophilus microplus—Injection Test • Solvent: dimethyl sulphoxide […] The animals are transferred into dishes and kept in a climate-controlled room. Efficacy is assessed after 7 days by laying of fertile eggs. Eggs which are not visibly fertile are stored in a climate-controlled cabinet until the larvae hatch after about 42 days.

[4] = test system: Ctenocephalides felis; assay: Ctenocephalides felis in vitro contact test with adult cat fleas; type: in vivo; conditions: application rate 500 g/ha (5 μg/cm^2), after 48 h
Procedure: Ctenocephalides felis—In Vitro Contact Tests with Adult Cat Fleas
(§3) For the coating of the test tubes, 9 mg of active compound are first dissolved in 1 ml of acetone p.a. and then diluted to the desired concentration with acetone p.a. 250 μl of the solution are distributed homogeneously on the inner walls and the base of a 25 ml test tube by turning and rocking on an orbital shaker (rocking rotation at 30 rpm for 2 h). With 900 ppm active compound solution and internal surface 44.7 cm^2, given homogeneous distribution, an area-based dose of 5 μg/cm^2 is achieved.
After the solvent has evaporated off, the tubes are populated with 5-10 adult cat fleas (Ctenocephalides felis), sealed with a perforated plastic lid and incubated in a horizontal position at room temperature and ambient humidity. After 48 h, efficacy is determined. To this end, the test tubes are stood upright and the fleas are knocked to the base of the tube. Fleas which remain motionless at the base or move in an uncoordinated manner are considered to be dead or moribund.
100% efficacy means that all the fleas were dead or moribund. 0% efficacy means that no fleas were harmed.

[5] = logP by HPLC on reversed-phase column (C18), EEC Directive 79/831 Annex V.A8; type: physicochemical; conditions: HPLC, C18, acetonitrile (0.1% formic acid)/water (0.09% formic acid) gradient
[6] = test system: Boophilus microplus Parkhurst strain, SP-resistant; assay: Boophilus microplus dip test; type: in vivo; conditions: application rate 100 ppm, assessed after 7 days
Procedure: Boophilus microplus—Dip Test
• Test animals: cattle ticks (Boophilus microplus) Parkhurst strain, SP-resistant • Solvent: dimethyl sulphoxide
10 mg of active compound are dissolved in 0.5 ml of dimethyl sulphoxide. To produce a suitable formulation, the active compound solution is diluted with water to the concentration desired in each case.
This active compound preparation is pipetted into tubes. 8-10 engorged adult female cattle ticks (Boophilus microplus) are transferred into a further tube with holes. The tube is immersed into the active compound preparation, and all the ticks are completely wetted. After the liquid has run out, the ticks are transferred on filter discs into plastic dishes and stored in a climate-controlled room.
Efficacy is assessed after 7 days by laying of fertile eggs. Eggs which are not visibly fertile are stored in a climate-controlled cabinet until the larvae hatch after about 42 days. An efficacy of 100% means that none of the ticks has laid any fertile eggs; 0% means that all the eggs are fertile.

[7] = test system: Phaedon cochleariae; assay: Phaedon cochleariae spray test; type: in vivo; conditions: application rate 100 g/ha, after 7 days
Procedure: Phaedon Cochleariae—Spray Test
(§4) • Solvent: 78.0 parts by weight of acetone • 1.5 parts by weight of dimethylformamide • Emulsifier: alkylaryl polyglycol ether
(§5) To produce a suitable preparation of active compound, 1 part by weight of active compound is dissolved using the stated parts by weight of solvent and made up with water containing an emulsifier concentration of 1000 ppm until the desired concentration is attained. To produce further test concentrations, the preparation is diluted with emulsifier-containing water.
After 7 days, the efficacy in % is determined. 100% means that all the beetle larvae have been killed; 0% means that no beetle larvae have been killed.

[8] = test system: Spodoptera frugiperda; assay: Spodoptera frugiperda spray test; type: in vivo; conditions: application rate 100 g/ha, after 7 days
Procedure: Spodoptera Frugiperda—Spray Test
as §4, §5
Leaf discs of maize (Zea mays) are sprayed with an active compound preparation of the desired concentration and, after drying, populated with caterpillars of the armyworm (Spodopterafrugiperda).
After 7 days, the efficacy in % is determined. 100% means that all the caterpillars have been killed; 0% means that no caterpillars have been killed.

[9] = test system: Tetranychus urticae; assay: Tetranychus urticae spray test, OP-resistant; type: in vivo; conditions: after 6 days
Procedure: Tetranychus Urticae—Spray Test, OP-Resistant
as §4
To produce further test concentrations, the preparation is diluted with emulsifier-containing water.
After 6 days, the efficacy in % is determined. 100% means that all the spider mites have been killed; 0% means that none of the spider mites have been killed.

[10] = test system: Musca domestica; assay: Musca domestica test; type: in vivo; conditions: application rate 100 ppm, adult houseflies, after 2 days
Procedure: as §1, §2
Vessels containing a sponge treated with sugar solution and the active compound preparation of the desired concentration are populated with 10 adult houseflies (Musca domestica).
After 2 days, the kill in % is determined. 100% means that all of the flies have been killed; 0% means that none of the flies have been killed.

[11] = test system: Myzus persicae; assay: Myzus persicae spray test; type: in vivo; conditions: application rate 100 g/ha, after 6 days
Procedure: Myzus Persicae—Spray Test […] To produce further test concentrations, the preparation is diluted with emulsifier-containing water. Discs of Chinese cabbage leaves (Brassica pekinensis) infested by all stages of the green peach aphid (Myzus persicae) are sprayed with an active compound preparation of the desired concentration.

[12] = test system: Amblyomma hebraeum; assay: Amblyomma hebraeum test (tick nymphs, immersion); type: in vivo; conditions: application rate 100 ppm, after 42 days
Text: Amblyomma hebaraeum Test • Solvent: dimethyl sulphoxide […] Tick nymphs (Amblyomma hebraeum) are placed into perforated plastic beakers and immersed in the desired concentration for one minute. The ticks are transferred on filter paper into a Petri dish and stored in a climate-controlled cabinet.

[13] = test system: Rhipicephalus sanguineus; assay: Rhipicephalus sanguineus in vitro contact test with adult brown dog ticks; type: in vivo; conditions: after 48 h
Procedure: Rhipicephalus sanguineus—In Vitro Contact Tests with Adult Brown Dog Ticks
as §3
After the solvent has evaporated off, the tubes are populated with 5-10 adult dog ticks (Rhipicephalus sanguineus), sealed with a perforated plastic lid and incubated in a horizontal position in the dark at room temperature and ambient humidity. After 48 h, efficacy is determined. To this end, the ticks are knocked to the floor of the tube and incubated on a hotplate at 45-50° C. for not more than 5 min. Ticks which remain motionless on the floor or move in such an uncoordinated manner that they are unable to deliberately avoid the heat by climbing upwards are considered to be dead or moribund.
An efficacy of 100% means that all the ticks were dead or moribund. 0% efficacy means that none of the ticks had been harmed.

[14] = application rate 500 g/ha (5 μg/cm^2)

Cc1cc(C(F)(C(F)(F)F)C(F)(F)F)cc(C(F)(F)F)c1-n1cc(-c2cnc(Cl)c(C(=O)N(C)C3CC3)c2)nn1 [Example 15]
efficacy (kill in %) [1]: 100% | efficacy (kill in %) [2]: 100% | efficacy (laying of fertile eggs) [3]: 100% | efficacy (fleas dead or moribund) [4]: 100% | logP [5]: 4.3 | efficacy (laying of fertile eggs) [6]: 100% | efficacy in % [7]: 100% | efficacy in % [8]: 100% | efficacy in % ([9]; application rate 100 g/ha): 100% | efficacy (kill in %) [10]: 100% | efficacy in % [11]: 90%

O=C(NC1CC1)c1cc(-c2cn(-c3c(Cl)cc(C(F)(C(F)(F)F)C(F)(F)F)cc3Cl)nn2)cnc1Cl [Example 3]
efficacy (kill in %) [1]: 100% | efficacy (kill in %) [2]: 100% | efficacy (laying of fertile eggs) [3]: 100% | efficacy (kill in %) [12]: 100% | logP [5]: 3.9 | efficacy (laying of fertile eggs) [6]: 100% | efficacy in % [7]: 100% | efficacy in % [8]: 100% | efficacy in % ([9]; application rate 20 g/ha): 90% | efficacy (ticks dead or moribund) [13, 14]: 100% | efficacy (kill in %) [10]: 100%

Cc1cc(C(F)(C(F)(F)F)C(F)(F)F)cc(C(F)(F)F)c1-n1cc(-c2cnc(Cl)c(C(=O)NC3(C#N)CC3)c2)nn1 [Example 14]
efficacy (kill in %) [1]: 100% | efficacy (kill in %) [2]: 90% | efficacy (laying of fertile eggs) [3]: 100% | efficacy (fleas dead or moribund) [4]: 80% | logP [5]: 3.9 | efficacy (laying of fertile eggs) [6]: 100% | efficacy in % [7]: 100% | efficacy in % [8]: 100% | efficacy in % ([9]; application rate 100 g/ha): 100% | efficacy (ticks dead or moribund) [13, 14]: 100% | efficacy (kill in %) [10]: 100%

Cc1cc(C(F)(C(F)(F)F)C(F)(F)F)cc(C)c1-n1cc(-c2cnc(Cl)c(C(=O)NC3(C#N)CC3)c2)nn1 [Example 8]
efficacy (kill in %) [1]: 100% | efficacy (kill in %) [2]: 90% | efficacy (laying of fertile eggs) [3]: 100% | efficacy (kill in %) [12]: 100% | efficacy (fleas dead or moribund) [4]: 100% | logP [5]: 3.8 | efficacy (laying of fertile eggs) [6]: 100% | efficacy in % [7]: 100% | efficacy in % ([9]; application rate 100 g/ha): 100% | efficacy (ticks dead or moribund) [13, 14]: 100% | efficacy (kill in %) [10]: 95%

N#CC1(NC(=O)c2cc(-c3cn(-c4c(Cl)cc(C(F)(C(F)(F)F)C(F)(F)F)cc4Cl)nn3)cnc2Cl)CC1 [Example 9]
efficacy (kill in %) [1]: 100% | efficacy (kill in %) [2]: 100% | efficacy (laying of fertile eggs) [3]: 100% | efficacy (kill in %) [12]: 100% | efficacy (fleas dead or moribund) [4]: 100% | logP [5]: 3.8 | efficacy (laying of fertile eggs) [6]: 100% | efficacy in % [7]: 100% | efficacy in % ([9]; application rate 100 g/ha): 100% | efficacy (ticks dead or moribund) ([13]; application rate 20 g/ha (0.2 μg/cm^2)): 100% | efficacy (kill in %) [10]: 100%

Cc1cc(C(F)(C(F)(F)F)C(F)(F)F)cc(C)c1-n1cc(-c2cnc(C)c(C(=O)NC3(C#N)CC3)c2)nn1 [Example 12]
efficacy (kill in %) [1]: 100% | efficacy (kill in %) [2]: 100% | efficacy (laying of fertile eggs) [3]: 100% | efficacy (fleas dead or moribund) [4]: 100% | logP [5]: 3.4 | efficacy (laying of fertile eggs) [6]: 80% | efficacy in % [7]: 100% | efficacy in % [8]: 100% | efficacy in % ([9]; application rate 100 g/ha): 100% | efficacy (ticks dead or moribund) [13, 14]: 80% | efficacy (kill in %) [10]: 100% | efficacy in % [11]: 90%

CN(C(=O)c1cc(-c2cn(-c3c(Cl)cc(C(F)(C(F)(F)F)C(F)(F)F)cc3OC(F)(F)F)nn2)cnc1Cl)C1CC1 [Example 35]
efficacy (kill in %) [1]: 100% | efficacy (kill in %) [2]: 100% | efficacy (laying of fertile eggs) [3]: 100% | logP [5]: 4.6 | efficacy in % [7]: 100% | efficacy in % [8]: 100% | efficacy in % ([9]; application rate 100 g/ha): 100% | efficacy (kill in %) [10]: 100% | efficacy in % [11]: 90%

Cc1cc(C(F)(C(F)(F)F)C(F)(F)F)cc(C(F)(F)F)c1-n1cc(-c2cnc(Cl)c(C(=O)NC3CC3)c2)nn1 [Example 13]
efficacy (kill in %) [1]: 100% | efficacy (kill in %) [2]: 100% | efficacy (laying of fertile eggs) [3]: 100% | efficacy (fleas dead or moribund) [4]: 100% | logP [5]: 3.9 | efficacy (laying of fertile eggs) [6]: 100% | efficacy in % [7]: 100% | efficacy in % [8]: 100% | efficacy in % ([9]; application rate 100 g/ha): 100% | efficacy (ticks dead or moribund) [13, 14]: 100% | efficacy (kill in %) [10]: 100% | efficacy in % [11]: 90%

Source: patent US10208015B2, “Aryl-triazolyl pyridines as pest control agents” (BAYER ANIMAL HEALTH GMBH, priority 2014, dated 2019)
